According to patent publication US7807673B2, “2-pyrimidinyl pyrazolopyridine ErbB kinase inhibitors” (GlaxoSmithKline LLC, priority 2005, dated 2010):

Key:
Colo205 tumor cell lines = assay: Celltiter Glo growth inhibition assay (cellular Method B); format: cell-based; conditions: Homo sapiens, COLO 205, 72 h, Table 3, Method B Celltiter Glo, 3 days
Procedure: (§1) Human breast tumor cells (BT474) were cultured in RPMI, (Invitrogen, 22400) containing 10% fetal bovine serum (FBS). Human head and neck tumor cells (HN5) were cultured in low glucose DMEM (Invitrogen, 12320) containing 10% FBS. Human colon tumor cells (Colo205) were cultured in DMEM (Invitrogen, 10564) containing 10% FBS. All cell lines were maintained at 37° C. in a humidified 5% CO2, 95% air incubator. Cells were harvested using trypsin/EDTA, counted using a haemocytometer, and plated in 30 microliters of the appropriate media described above, at the following densities, in a half area, black-walled, 96-well tissue culture plate (Corning 3882): BT474 3,000 cells/well, HN5 500 cells/well and Colo205 cells, 3,000 cells/well. The next day, compounds were diluted in DMEM containing 100 mg/ml gentamicin, from 10 mM stock solutions in DMSO. 30 microliters/well of these dilutions were added to the 30 microliters/well of media currently on the cell plates. Medium containing 0.6% DMSO was added to control wells. The final concentration of DMSO in all wells was 0.3%. Cells were incubated at 37° C., 5% CO2 for 3 days. Cell biomass was estimated using Celltiter Glo (Promega G7571). Briefly, plates were removed from the incubator and allowed to equilibrate to rt for 30 minutes. 60 microliters of Celltiter Glo reagent were added to each well of the treated cells and plates were shaken on an orbital plate shaker for 2 min. Plates were incubated without shaking for 30 more min and read in a luminometer with an integration time of 0.5 seconds per well. Percent inhibition of cell growth was calculated relative to vehicle treated control wells. Concentration of compound that inhibits 50% of vehicle control cell growth (IC50) was interpolated using nonlinear regression (Levenberg-Marquardt) and the equation, y=Vmax*(1−(x/(K+x)))+Y2, where “K” was equal to the IC50.

[1] = test system: BT474 and HN5 tumor cell lines; assay: as above; format: cell-based; conditions: Homo sapiens, BT-474, 72 h; Table 2, Method B Celltiter Glo, 3 days; class over BT474 and HN5;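 note: class counts the more potent of the two cell lines (BT474 or HN5)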
Procedure: as §1

ErbB2 or EGFR = target: T1, ErbB2 or EGFR; assay: ErbB enzyme substrate phosphorylation assay (HTRF), Method B (enzyme pre-incubated with compound 1 hour); format: biochemical; conditions: Table 1, enzyme Method B: enzyme mix incubated with compound 1 hour at 20° C., reaction started with substrate mix; class over ErbB2 or EGFR
T1 construct: enzymes purified from a baculovirus expression system
Procedure: Compounds of the present invention were tested for EGFR, ErbB-2, and ErbB-4 protein tyrosine kinase inhibitory activity in substrate phosphorylation assays using enzymes purified from a baculovirus expression system. Reagent production was conducted essentially as described in Brignola, P. S., et al, (2002) J. Biol. Chem. 277(2): 1576-1585.
The method measures the ability of the isolated enzyme to catalyse the transfer of the gamma-phosphate from ATP onto the tyrosine residue of a biotinylated synthetic peptide referenced “Peptide C” in Brignola, P. S., et al, (2002) J. Biol. Chem. 277(2):1576-1585. The extent of tyrosine phosphorylation was measured using an anti-phosphotyrosine antibody, and quantified by homogenous time-resolved fluorescence (HTRF).
Reactions were performed in black 384-well polystyrene flat-bottom plates in a final volume of 20 μl. Assays were performed by adding 10 μl of each of the following solutions, substrate Mix and enzyme mix: The Substrate mix contained 100 mM 3-[N-morpholino]propanesulfonic acid (MOPS) (pH 7.5), 2 mM MnCl2, 20 μM ATP, 0.01% Tween-20, 0.1 mg/mL (BSA), 0.8 uM peptide substrate, and 1 mM dithiothreitol. The enzyme mix contained 100 mM MOPS (pH7.5); 0.01% Tween-20; 0.1 mg/mL BSA, and either 0.8 nM EGFR, 10 nM ErbB2, or 1 nM ErbB4
During the course of these studies, two separate methods have been used to measure the potency of compounds. In Method A, the substrate mix was added to the compound plates first, then the reaction was started by adding the enzyme mix. In Method B, the enzyme mix was added to the compound plates and the plates were incubated at 20° C. for 1 hour. The reactions were then started by adding the substrate mix.
After initiating the reaction with either method describe above, the reactions were allowed to proceed for 90 minutes at 20° C. The reactions were then terminated by the addition of 20 μl 100 mM EDTA to each well. 40 μl/well of HTRF detection mix were added to the assay plates. The final concentrations of the detection reagents were: 100 mM HEPES (pH7.5), 0.1 mg/mL BSA, 15 nM streptavidin-labeled allophycocyanin (PerkinElmer), and 1 nM europium-labeled anti-phosphotyrosine antibody (PerkinElmer). Assay plates were left unsealed and were counted in a Wallac Multilabel Counter 1420 (PerkinElmer).
Compounds under analysis were dissolved in Me2SO to 1.0 mM and serially diluted 1 to 3 with Me2SO through twelve dilutions. 1 μl of each concentration was transferred to the corresponding well of an assay plate. This creates a final compound concentration range from 0.00027 to 47.6 μM.
The data for dose responses were plotted as % Inhibition calculated with the data reduction formula 100*(1−(U1−C2)/(C1−C2)) versus concentration of compound where U is the unknown value, C1 is the average control value obtained for 4.76% DMSO, and C2 is the average control value obtained for 0.035 M EDTA. Data were fitted with a curve described by: y=((Vmax*x)/(K+x))+Y2 where Vmax is the upper asymptote, Y2 is the Y intercept, and K is the IC50. The results for each compound were recorded as pIC50s, calculated as follows: pIC50=−Log 10(K)

Compound | IC50 (Colo205 tumor cell lines) [nM] | IC50 [1] [nM] | Activity (Method) (ErbB2 or EGFR)
CN(C)Cc1cccc(Nc2nccc(-c3c(-c4cccc(NC(=O)Cc5cccs5)c4)nn4ccccc34)n2)c1 [Example 7, N-(3-{3-[2-({3-[(Dimethylamino)methyl]phenyl}amino)-4-pyrimidinyl]pyrazolo[1,5-a]pyridin-2-yl}phenyl)-2-(2-thienyl)acetamide] | 100 to 1000 | 100 to 1000 | +++ (B) (at least one pIC50 measurement of greater than 7 against either ErbB2 or EGFR)
CN1CCc2ccc(Nc3nccc(-c4c(-c5cccc(NC(=O)Cc6cccs6)c5)nn5ccccc45)n3)cc2C1 [Example 8] | – | – | +++ (B) (at least one pIC50 measurement of greater than 7 against either ErbB2 or EGFR)
Cc1ncoc1-c1cccc(Nc2nccc(-c3c(-c4cccc(NC(=O)Cc5cccs5)c4)nn4ccccc34)n2)c1 [Example 52, N-{3-[3-(2-{[3-(4-methyl-1,3-oxazol-5-yl)phenyl]amino}pyrimidin-4-yl)pyrazolo[1,5-a]pyridin-2-yl]phenyl}-2-(2-thienyl)acetamide] | 100 to 1000 | 100 to 1000 | –
Cc1c(Nc2nccc(-c3c(-c4ccc(F)c(NC(=O)Cc5cccs5)c4)nn4ccccc34)n2)cccc1OCCN(C)C [Example 60, N-[5-(3-{2-[(3-{[2-(Dimethylamino)ethyl]oxy}-2-methylphenyl)amino]-4-pyrimidinyl}pyrazolo[1,5-a]pyridin-2-yl)-2-fluorophenyl]-2-(2-thienyl)acetamide] | – | – | ++ (B) (at least one pIC50 measurement greater than 6 against either ErbB2 or EGFR but no measurement greater than pIC50 of 7)
CN1CCc2ccc(Nc3nccc(-c4c(-c5ccc(F)c(NC(=O)Cc6cccs6)c5)nn5ccccc45)n3)cc2C1 [Example 63, N-[2-Fluoro-5-(3-{2-[(2-methyl-1,2,3,4-tetrahydro-7-isoquinolinyl)amino]-4-pyrimidinyl}pyrazolo[1,5-a]pyridin-2-yl)phenyl]-2-(2-thienyl)acetamide] | – | – | +++ (B) (at least one pIC50 measurement of greater than 7 against either ErbB2 or EGFR)
COc1ccc(-c2nn3ccccc3c2-c2ccnc(Nc3cccc(OCCN(C)C)c3C)n2)cc1NC(=O)Cc1cccs1 [Example 64, N-[5-(3-{2-[(3-{[2-(Dimethylamino)ethyl]oxy}-2-methylphenyl)amino]-4-pyrimidinyl}pyrazolo[1,5-a]pyridin-2-yl)-2-(methyloxy)phenyl]-2-(2-thienyl)acetamide] | – | – | + (B) (no pIC50 measurement greater than 6 against either ErbB2 or EGFR)
COc1ccc(-c2nn3ccccc3c2-c2ccnc(Nc3cccc(OCCN(C)C)c3)n2)cc1NC(=O)Cc1cccs1 [Example 65, N-[5-(3-{2-[(3-{[2-(Dimethylamino)ethyl]oxy}phenyl)amino]-4-pyrimidinyl}pyrazolo[1,5-a]pyridin-2-yl)-2-(methyloxy)phenyl]-2-(2-thienyl)acetamide] | – | – | + (B) (no pIC50 measurement greater than 6 against either ErbB2 or EGFR)
COc1ccc(-c2nn3ccccc3c2-c2ccnc(Nc3cc(OCCN(C)C)ccc3C)n2)cc1NC(=O)Cc1cccs1 [Example 66, N-[5-(3-{2-[(5-{[2-(Dimethylamino)ethyl]oxy}-2-methylphenyl)amino]-4-pyrimidinyl}pyrazolo[1,5-a]pyridin-2-yl)-2-(methyloxy)phenyl]-2-(2-thienyl)acetamide] | – | – | + (B) (no pIC50 measurement greater than 6 against either ErbB2 or EGFR)
COc1ccc2c(-c3ccnc(Nc4cccc(OCCN(C)C)c4)n3)c(-c3cccc(NC(=O)C4(c5ccccc5)CC4)c3)nn2c1 [Example 67, N-{3-[3-{2-[(3-{[2-(Dimethylamino)ethyl]oxy}phenyl)amino]-4-pyrimidinyl}-6-(methyloxy)pyrazolo[1,5-a]pyridin-2-yl]phenyl}-1-phenylcyclopropanecarboxamide] | – | – | ++ (B) (at least one pIC50 measurement greater than 6 against either ErbB2 or EGFR but no measurement greater than pIC50 of 7)
COc1ccc2c(-c3ccnc(Nc4cccc(OCCN(C)C)c4)n3)c(-c3cccc(NC(=O)/C=C/c4ccccc4)c3)nn2c1 [Example 68, (2E)-N-{3-[3-{2-[(3-{[2-(Dimethylamino)ethyl]oxy}phenyl)amino]-4-pyrimidinyl}-6-(methyloxy)pyrazolo[1,5-a]pyridin-2-yl]phenyl}-3-phenyl-propenamide] | – | – | +++ (B) (at least one pIC50 measurement of greater than 7 against either ErbB2 or EGFR)
COc1ccc2c(-c3ccnc(Nc4cccc(OCCN(C)C)c4)n3)c(-c3cccc(NC(=O)NCc4ccc(F)cc4)c3)nn2c1 [Example 70, N-{3-[3-{2-[(3-{[2-(Dimethylamino)ethyl]oxy}phenyl)amino]-4-pyrimidinyl}-6-(methyloxy)pyrazolo[1,5-a]pyridin-2-yl]phenyl}-N-[(4-fluorophenyl)methyl]urea] | – | – | +++ (B) (at least one pIC50 measurement of greater than 7 against either ErbB2 or EGFR)
Cc1ccc2c(-c3ccnc(Nc4cccc(CN5CCCC5)c4)n3)c(-c3cccc(NC(=O)Cc4cccs4)c3)nn2c1 [Example 71, N-{3-[6-Methyl-3-(2-{[3-(1-pyrrolidinylmethyl)phenyl]amino}-4-pyrimidinyl)pyrazolo[1,5-a]pyridin-2-yl]-phenyl}-2-(2-thienyl)acetamide] | – | – | +++ (B) (at least one pIC50 measurement of greater than 7 against either ErbB2 or EGFR)
Cc1ccc2c(-c3ccnc(Nc4cccc(OCCN(C)C)c4)n3)c(-c3cccc(NC(=O)Cc4cccs4)c3)nn2c1 [Example 72, N-[3-(3-{2-[(3-{[2-(Dimethylamino)ethyl]oxy}phenyl)amino]-4-pyrimidinyl}-6-methylpyrazolo[1,5-a]pyridin-2-yl)phenyl]-2-(2-thienyl)acetamide] | – | – | +++ (B) (at least one pIC50 measurement of greater than 7 against either ErbB2 or EGFR)
CC(=O)N1CCN(c2ccc(Nc3nccc(-c4c(-c5cccc(NC(=O)Cc6cccs6)c5)nn5cc(C)ccc45)n3)cc2)CC1 [Example 73, N-{3-[3-(2-{[4-(4-Acetyl-1-piperazinyl)phenyl]amino}-4-pyrimidinyl)-6-methylpyrazolo[1,5-a]pyridin-2-yl]phenyl}-2-(2-thienyl)acetamide] | – | – | +++ (B) (at least one pIC50 measurement of greater than 7 against either ErbB2 or EGFR)
